Test results: patent US12091701B2, “Screening method for candidate substances for active component to prevent or treat at least one disease selected from the group consisting of renal hypofunction, chronic kidney disease and kidney failure” (KARYDO THERAPEUTIX, INC., priority 2016, dated 2024)

Legend:
[1] = test system: FGF23 gene (the skull); experiment: qRT-PCR of FGF23 in the skull of HP model mice given soluble human Oscar-Fc fusion protein; format: in vivo, mice (C57BL/6N); conditions: mice on diet with high phosphorus content (2% inorganic phosphorus) 4 weeks; 10 mg/kg intraperitoneally weekly, five times; vs physiological saline; normalized to Maea; p=0.026; n=5 to 6
Source text: (§1) Subsequently, the mixture was vortexed vigorously for 15 seconds.

[2] = test system: PRP genes (Prb1, Prh1, Prp2, and Prpmp5) (the parotid glands); conditions: mice on diet with high phosphorus content 4 weeks; 10 mg/kg intraperitoneally weekly, five times; vs physiological saline; n=5 to 6
Protocol: After the wet weights of the collected organs and tissue were measured, the organs and tissue were rapidly frozen in liquid nitrogen and stored at −80° C.

[3] = test system: FGF23 in plasma; experiment: Measurement of concentration of FGF23 in plasma by ELISA method in HP model mice; format: in vivo, mice (C57BL/6N); conditions: mice on diet with high phosphorus content 4 weeks; 10 mg/kg intraperitoneally weekly, five times; vs physiological saline; p=0.049
Protocol: The concentration of FGF23 in plasma was measured using an ELISA kit sold by KAINOS Laboratories, Inc. (TCY4000). A plasma sample cryopreserved in a freezer was thawed on ice, and the sample undiluted or the sample diluted 5-fold with standard solution 1 (FGF-23 concentration, 0 pg/ml) supplied with the kit was used for measurement.
50 μl of the diluted sample or a sample for a calibration curve was added to each well of an ELISA plate supplied with the kit. The plate was sealed, followed by stirring and incubating at room temperature for 2 hours. After the two hours, the sample in each well was aspirated and discarded. 300 μl of a wash solution supplied with the kit was then added to each well, and the wash solution was removed. This operation was performed four times. After the wash solution was thoroughly removed, 100 μl of an enzyme-labeled antibody solution (FGF-23 Conjugate) supplied with the kit was added to each well, and the plate was sealed, followed by stirring and incubating at room temperature for 1 hour. After the 1 hour, the sample in each well was aspirated and discarded. […] Absorbance at 450 nm was then measured with an absorbance microplate reader (Multiskan GO, Thermo Fisher Scientific Inc.). The concentration of FGF23 in plasma was calculated by making a calibration curve from the measurement result of recombinant FGF23 supplied with the kit.

[4] = test system: Fgg gene (kidneys); experiment: qRT-PCR of Fgg gene (fibrinogen) in the kidneys of HP model mice given soluble Oscar-Fc fusion protein; format: in vivo, mice (C57BL/6N); conditions: HP4W_sOscar vs HP4W_NS; diet with high phosphorus content 4 weeks; p=0.00071; n=5 to 6
Source text: as §1
To evaluate the effect of the soluble Oscar-Fc fusion protein on kidney function, the expression of a kidney function marker was confirmed in the kidneys of HP4W_NS, HP4W_sOscar, and LP4W of Reference Example 2.

How did the “expression of FGF23 in the skull (qRT-PCR)” value [1] turn out when “soluble human Oscar-Fc fusion protein: Soluble human Oscar-Fc fusion protein of SEQ ID NO: 2 (human Oscar sequence, hinge, human IgG1); inhibits ligand binding to Oscar” was run?
Its value is “suppressed”.

And the “expression of PRP genes (Prb1, Prh1, Prp2, and Prpmp5) in the parotid glands (qRT-PCR)” value [2]?
Its value is “suppressed”.

And the “increase in the concentration of FGF23 in plasma (ELISA)” value [3]?
Its value is “statistically significantly suppressed”.

What about the “expression of the Fgg gene in the kidneys (qRT-PCR)” value [4] of the same substance?
Its value is “significantly suppressed”.
